PubChem BioAssay AID248 (DTP/NCI, 2004)
Values joined by “and” are separate entries in the source; they are usually repeats but may differ in a detail not shown here. Identical values can stand only once. Toxic doses and inconclusive results are not listed. No stated cut-off is given here; in the data, active means T/C of 150% or more; inactive means T/C below 125%.

Tested on: L1210 leukemia ip in BDF1 mice, survival T/C
Experiment: NCI In Vivo Anticancer Drug Screen. Data for tumor model L1210 Leukemia (intraperitoneal) in B6D2F1 (BDF1) mice
Details: endpoint: mean survival time, higher = longer survival
Procedure, shortened: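 Value reflects the ratio of survival in compound-treated mice to survival in vehicle-treated controls, with both groups carrying the same transplanted tumor.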

[1] = dose: 50.0 mg/kg/injection, schedule: Q01DX009 (ip), vehicle: saline with Tween-80
[2] = dose: 100.0 mg/kg/injection, schedule: Q01DX009 (ip), vehicle: saline with Tween-80
[3] = dose: 100.0 mg/kg/injection, schedule: Q04DX002 (ip), vehicle: Klucel (hydroxypropylcellulose) (HPC)
[4] = dose: 200.0 mg/kg/injection, schedule: Q04DX002 (ip), vehicle: Klucel (hydroxypropylcellulose) (HPC)
[5] = dose: 400.0 mg/kg/injection, schedule: Q04DX002 (ip), vehicle: Klucel (hydroxypropylcellulose) (HPC)
[6] = dose: 100.0 mg/kg/injection, schedule: Q04DX003 (ip), vehicle: saline with Tween-80
[7] = dose: 200.0 mg/kg/injection, schedule: Q04DX003 (ip), vehicle: saline with Tween-80
[8] = dose: 100.0 mg/kg/injection, schedule: Q01DX009 (ip), vehicle: Klucel (hydroxypropylcellulose) (HPC)
[9] = dose: 200.0 mg/kg/injection, schedule: Q01DX009 (ip), vehicle: Klucel (hydroxypropylcellulose) (HPC)
[10] = dose: 400.0 mg/kg/injection, schedule: Q01DX009 (ip), vehicle: Klucel (hydroxypropylcellulose) (HPC)

Measured: T/C

CCCCCCCCCCCCCCCC(=O)N(CCCC)CCCC
inactive: dose: 100.0 mg/kg/injection, schedule: Q01DX001 (ip), vehicle: carboxymethylcellulose (CMC) 98 % of control | dose: 100.0 mg/kg/injection, schedule: Q01DX009 (ip), vehicle: carboxymethylcellulose (CMC) 96 % of control and 110 % of control | dose: 100.0 mg/kg/injection, schedule: Q04DX003 (ip), vehicle: carboxymethylcellulose (CMC) 96 % of control | dose: 200.0 mg/kg/injection, schedule: Q01DX001 (ip), vehicle: carboxymethylcellulose (CMC) 102 % of control | dose: 200.0 mg/kg/injection, schedule: Q01DX009 (ip), vehicle: carboxymethylcellulose (CMC) 100 % of control and 110 % of control | dose: 200.0 mg/kg/injection, schedule: Q04DX003 (ip), vehicle: carboxymethylcellulose (CMC) 94 % of control | dose: 400.0 mg/kg/injection, schedule: Q01DX001 (ip), vehicle: carboxymethylcellulose (CMC) 102 % of control | dose: 400.0 mg/kg/injection, schedule: Q01DX009 (ip), vehicle: carboxymethylcellulose (CMC) 96 % of control and 104 % of control | dose: 400.0 mg/kg/injection, schedule: Q04DX003 (ip), vehicle: carboxymethylcellulose (CMC) 96 % of control

CC(C)(CO)CCl
inactive: [1] 91 % of control | [2] 95 % of control | dose: 200.0 mg/kg/injection, schedule: Q01DX009 (ip), vehicle: saline with Tween-80 88 % of control

C/C=C(\C)C(C#N)CCCC (centres undefined)
inactive: dose: 75.0 mg/kg/injection, schedule: Q01DX001 (ip), vehicle: carboxymethylcellulose (CMC) 95 % of control | dose: 150.0 mg/kg/injection, schedule: Q01DX001 (ip), vehicle: carboxymethylcellulose (CMC) 106 % of control | dose: 300.0 mg/kg/injection, schedule: Q01DX001 (ip), vehicle: carboxymethylcellulose (CMC) 95 % of control

O=C(NCCCCC(NC(=O)c1ccccc1)C(=O)NCCCCCCNCCCCCCNC(=O)C(CCCCNC(=O)c1ccccc1)NC(=O)c1ccccc1)c1ccccc1 (centres undefined)
inactive: dose: 10.0 mg/kg/injection, schedule: Q01DX Z (ip), vehicle: saline 96 % of control | dose: 30.0 mg/kg/injection, schedule: Q01DX Z (ip), vehicle: saline 102 % of control | dose: 100.0 mg/kg/injection, schedule: Q01DX Z (ip), vehicle: saline 100 % of control | dose: 300.0 mg/kg/injection, schedule: Q01DX Z (ip), vehicle: saline 100 % of control

C=CCN(CC=C)P(N(CC=C)CC=C)N(CC=C)CC=C
inactive: dose: 75.0 mg/kg/injection, schedule: Q01DX009 (ip), vehicle: saline 98 % of control | dose: 150.0 mg/kg/injection, schedule: Q01DX009 (ip), vehicle: saline 96 % of control

CP1CCC(O)(c2ccccc2)CC1 (centres undefined)
inactive: [3] 88 % of control | [4] 103 % of control | [5] 95 % of control

COc1cc(OC)c(C(=O)c2ccccc2N)c(OC)c1
inactive: [6] 89 % of control | [7] 87 % of control

O=C(Nc1ccc(CC2=NCCN2)cc1)c1ccc(C(=O)Nc2ccc(CC3=NCCN3)cc2)cc1
inactive: dose: 0.5 mg/kg/injection, schedule: Q01DX Z (ip), vehicle: saline 102 % of control | dose: 1.0 mg/kg/injection, schedule: Q01DX Z (ip), vehicle: saline 104 % of control | dose: 2.0 mg/kg/injection, schedule: Q01DX Z (ip), vehicle: saline 91 % of control | dose: 4.0 mg/kg/injection, schedule: Q01DX Z (ip), vehicle: saline 104 % of control | dose: 8.0 mg/kg/injection, schedule: Q01DX Z (ip), vehicle: saline 104 % of control

COc1ccc(-n2c(=O)c(N=Nc3ccc(Br)cc3)c(O)n(-c3ccccc3Cl)c2=S)cc1
inactive: dose: 37.5 mg/kg/injection, schedule: Q01DX001 (ip), vehicle: Klucel (hydroxypropylcellulose) (HPC) 110 % of control | dose: 75.0 mg/kg/injection, schedule: Q01DX001 (ip), vehicle: Klucel (hydroxypropylcellulose) (HPC) 104 % of control | dose: 150.0 mg/kg/injection, schedule: Q01DX001 (ip), vehicle: Klucel (hydroxypropylcellulose) (HPC) 95 % of control

CCCCCCCC(=O)N1CCCCC1CC (centres undefined)
inactive: dose: 100.0 mg/kg/injection, schedule: Q04DX002 (ip), vehicle: saline with Tween-80 96 % of control | dose: 200.0 mg/kg/injection, schedule: Q04DX002 (ip), vehicle: saline with Tween-80 86 % of control

CCOC(=O)COc1ccc([N+](=O)[O-])cc1
inactive: dose: 100.0 mg/kg/injection, schedule: Q01DX001 (ip), vehicle: Klucel (hydroxypropylcellulose) (HPC) 112 % of control | [8] 97 % of control and 98 % of control | [3] 96 % of control and 101 % of control | dose: 100.0 mg/kg/injection, schedule: Q04DX003 (ip), vehicle: Klucel (hydroxypropylcellulose) (HPC) 106 % of control | dose: 200.0 mg/kg/injection, schedule: Q01DX001 (ip), vehicle: Klucel (hydroxypropylcellulose) (HPC) 98 % of control | [9] 95 % of control and 105 % of control | [4] 96 % of control and 103 % of control | dose: 200.0 mg/kg/injection, schedule: Q04DX003 (ip), vehicle: Klucel (hydroxypropylcellulose) (HPC) 100 % of control | dose: 400.0 mg/kg/injection, schedule: Q01DX001 (ip), vehicle: Klucel (hydroxypropylcellulose) (HPC) 106 % of control | [10] 93 % of control and 101 % of control | [5] 92 % of control and 102 % of control | dose: 400.0 mg/kg/injection, schedule: Q04DX003 (ip), vehicle: Klucel (hydroxypropylcellulose) (HPC) 101 % of control

CCC(=O)C(CCN1CCC(n2c(=O)[nH]c3ccccc32)CC1)(c1ccccc1)c1ccccc1
inactive: dose: 0.2 mg/kg/injection, schedule: Q01DX009 (ip), vehicle: saline with Tween-80 90 % of control | dose: 0.4 mg/kg/injection, schedule: Q01DX009 (ip), vehicle: saline with Tween-80 89 % of control | dose: 0.78 mg/kg/injection, schedule: Q01DX009 (ip), vehicle: saline with Tween-80 88 % of control | dose: 0.8 mg/kg/injection, schedule: Q01DX009 (ip), vehicle: saline with Tween-80 104 % of control | dose: 3.13 mg/kg/injection, schedule: Q01DX009 (ip), vehicle: saline with Tween-80 98 % of control | dose: 6.25 mg/kg/injection, schedule: Q01DX009 (ip), vehicle: saline with Tween-80 93 % of control and 89 % of control | dose: 12.5 mg/kg/injection, schedule: Q01DX009 (ip), vehicle: saline with Tween-80 95 % of control | dose: 25.0 mg/kg/injection, schedule: Q01DX009 (ip), vehicle: saline with Tween-80 90 % of control | [1] 86 % of control | [2] 96 % of control and 92 % of control

Cc1cc(C)c(S(=O)(=O)O)cc1[N+](=O)[O-]
inactive: [8] 96 % of control | [9] 101 % of control | [10] 98 % of control

CC(=O)NC(C)C
inactive: [6] 93 % of control | [7] 100 % of control | dose: 400.0 mg/kg/injection, schedule: Q04DX003 (ip), vehicle: saline with Tween-80 96 % of control
